Measurements as given in patent US5151264A, “Particulate vector useful in particular for the transport of molecules with biological activity and process for its preparation” (priority 1988, dated 1992).

Assays:
Bacillus subtilis = experiment: Inhibition of Bacillus subtilis in agar medium / Petri dish (agar cylinders method); assay type: cell-based
Protocol: (§1) Butirosin, like erythromycin, is determined by measuring the lysis zones (agar cylinders method) in an agar medium (bioMerieux) inoculated with 1000 cfu/ml of Bacillus subtilis and incubated at 37° C. for 18 hours. The bioMerieux agar medium consists of 6 g of bio-Gelytone, 3 g of yeast extract, 1.5 g of beef extract and 15 g of agar per 1 l of distilled water. The pH of the medium is adjusted to 9.
(§2) The serum samples are deposited in the wells made in the agar medium (30 μl/well). Reference solutions representing known amounts of antibiotic are also deposited in the dish.

[1] = Pharmacokinetics in plasma of free and encapsulated antibiotics in rabbits; assay type: in vivo, male rabbits of the "White New Zealand" type
Excerpt: In order to evaluate the influence of the encapsulation on the pharmacokinetics of two antibiotics, butirosin according to Example 6 and erythromycin according to Example 13, we carried out the determination in plasma as a function of time for these two antibiotics after administration in the free form and in the encapsulated form.
The injections are given subcutaneously and intravenously to male rabbits of the "White New Zealand" type weighing approximately 3 kg. The samples are taken at the lateral vein of the ear in amounts of 200 μl of blood/sample. The blood is immediately centrifuged at 8000 rpm for 15 min. The serum is withdrawn and stored at 4° C. until used.
as §1, §2
The amounts injected are 1 ml containing 9 mg of butirosin in the free or encapsulated form.
4 ml of a physiological solution containing 5 mg of butirosin either in the free form or encapsulated in 100 mg of BVSM are injected. The solution is prepared from 8 g/l NaCl, 0.2 g/l KCl, 0.1 g/l anhydrous CaC12 (sic), 0.1 g/l MgCl2, 3.18 g/l Na2 HPO4 and 0.2 g/l KH2 PO4, adjusted to pH 7.4.
The injections are made slowly in the external vein of the ear after vasodilatation with warm water and disinfection with ethanol at […].
The amounts injected are 1 ml containing 15 mg of free or encapsulated erythromycin. For reasons of solubility, free erythromycin is dissolved in a water/ethanol (85:15) mixture.

[2] = Bacillus subtilis, 18 h, read-out: Diameter (standard range)

Compound `CC[C@H]1OC(=O)[C@H](C)[C@@H](O[C@H]2C[C@@](C)(OC)[C@@H](O)[C@H](C)O2)[C@H](C)[C@@H](O[C@@H]2O[C@H](C)C[C@H](N(C)C)[C@H]2O)[C@](C)(O)C[C@@H](C)C(=O)[C@H](C)[C@@H](O)[C@]1(C)O` [Erythromycin, erythromycin] has a zone of inhibition at 10 µg/mL (Bacillus subtilis; [2]) of 26 mm, a zone of inhibition at 25 µg/mL (Bacillus subtilis; [2]) of 29 mm and a zone of inhibition at 100 µg/mL (Bacillus subtilis; [2]) of 31 mm. The zone of inhibition at 250 µg/mL (Bacillus subtilis; [2]) was 33 mm, the zone of inhibition at 1000 µg/mL (Bacillus subtilis; [2]) was 37 mm and the “diffusion in the plasma / plasma level” value ([1]; erythromycin) was “diffuses relatively slowly in the plasma”. The “diffusion in the plasma / plasma level” value ([1]; erythromycin, listed as Free erythromycin) was “higher initial level to be achieved in the plasma than the encapsulated form”.

In the case of butirosin, the “Diameter (standard range)” value (Bacillus subtilis; 0.5 μg/ml) is reported as 14 mm, the “Diameter (standard range)” value (Bacillus subtilis; 1 μg/ml) is reported as 17 mm and the “Diameter (standard range)” value (Bacillus subtilis; 2 μg/ml) is reported as 19 mm. For the same compound, the “Diameter (standard range)” value (Bacillus subtilis; 5 μg/ml) was 22 mm, the “Diameter (standard range)” value (Bacillus subtilis; 10 μg/ml) was 24 mm and the “Diameter (standard range)” value (Bacillus subtilis; 20 μg/ml) was 26 mm. The “Diameter (standard range)” value (Bacillus subtilis; 50 μg/ml) was 28 mm, the “diffusion into the plasma and elimination” value ([1]; rabbit, in vivo, iv) was “diffuses very rapidly into the plasma and is also eliminated very rapidly” and the “diffusion in the plasma / plasma level” value ([1]; rabbit, in vivo, sc) was “diffuses very rapidly in the plasma”. For the same compound, the “time after which eliminated” value ([1]; rabbit, in vivo, sc) was 6 h.
